Assay results published in US5021421A, “2-(1-Piperazinyl)-4-phenylcycloalkanopyridine derivatives, processes for the production thereof, and pharmaceutical composition containing the same” (Dainippon Pharmaceutical Co., Ltd., priority 1989, dated 1991).
Where a name gives a salt, the structure may show the parent alone. Read-outs that look alike come from different tables or passages of the source.

Experiments:
[1] = test system: brain monoamine metabolites; test: Increasing effect on concentration of brain monoamine metabolites; format: in vivo, mice (Std-ddy strain); conditions: Mus musculus, 2 h, non-dosed=100
Method: A group of 5 male mice (Std-ddy strain, 25-30 g) was used for examining effect of the test compounds on concentration of brain monoamine metabolites.
Mice were killed by decapitation 2 hours after treatment with the test compounds. Brains were quickly taken out, homogenized in 1N formic acid-acetone solution, and centrifuged in a refrigerated ultracentrifuge. The supernatant was evaporated by blowing with N2 gas. Then, the residue was again resolved in 0.01 N acetic acid, and served for determining concentration of dopamine metabolites, 3,4-dihydroxyphenylacetic acid (DOPAC) and homovanillic acid (HVA), a norepinephrine metabolite, 3-methyl-4-hydroxyphenylethylene glycol (MOPEG), and a serotonin metabolite, 5-hydroxyindole-3-acetic acid (5-HIAA) concentrations by HPLC with electrochemical detection. The effect of the test compounds on concentration of each monoamine metabolite is shown as % of control (level of non-dosed animals=100) in Table 4.

[2] = test system: apomorphine-induced vomiting; test: Antagonistic effect on apomorphine-induced vomiting; format: in vivo, dogs (Beagle); conditions: Canis lupus familiaris, sc, apomorphine 0.3 mg/kg s.c. 2 h after compound, read-out: Inhibitory ratio (apomorphine-induced vomiting)
Method: A group of 3-4 dogs (Beagle, 8-15 kg) was used for examining effects on the test compounds on apomorphine-induced vomiting, a known test for evaluating neuroleptic drugs.
Each dog was given a subcutaneous injection of apomorphine hydrochloride (0.3 mg/kg) two hours after the treatment of the test compounds. Then, the frequency of oral vomiting was counted for one hour. The mean counts of the compound-treated group were compared with those of the corresponding control (non-dosed) group, and the percent inhibition was calculated.

[3] = read-out: 5-HIAA concentration, % of control
[4] = read-out: DOPAC concentration, % of control
[5] = read-out: HVA concentration, % of control
[6] = read-out: MOPEG concentration, % of control

OCCN1CCN(c2cc(-c3ccccc3)c3c(n2)CCCCC3)CC1 [Example 24]
response vs control in vivo at 10 mg/kg [1, 3]: 150%
response vs control in vivo at 10 mg/kg [1, 4]: 290%
response vs control in vivo at 10 mg/kg [1, 5]: 317%
response vs control in vivo at 10 mg/kg [1, 6]: 139%

OCCN1CCN(c2cc(-c3ccc(F)cc3)c3c(n2)CCCCC3)CC1 [Example 26]
response vs control in vivo at 10 mg/kg [1, 4]: 344%
response vs control in vivo at 10 mg/kg [1, 5]: 263%

CCN1CCN(c2cc(-c3cccc(F)c3)c3c(n2)CCCCC3)CC1 [Example 27]
inhibition in vivo at 3 mg/kg [2]: 47%
response vs control in vivo at 10 mg/kg [1, 4]: 208%
response vs control in vivo at 10 mg/kg [1, 5]: 193%

CCN1CCN(c2cc(-c3ccccc3F)c3c(n2)CCCCC3)CC1 [Example 29]
inhibition in vivo at 3 mg/kg [2]: 63%
response vs control in vivo at 10 mg/kg [1, 4]: 296%
response vs control in vivo at 10 mg/kg [1, 5]: 274%

Cc1ccc(-c2cc(N3CCN(CCO)CC3)nc3c2CCCCC3)cc1 [Example 35]
response vs control in vivo at 10 mg/kg [1, 4]: 165%
response vs control in vivo at 10 mg/kg [1, 5]: 170%

OCCN1CCN(c2cc(-c3ccc(F)cc3)c3c(n2)CCCCCC3)CC1 [Example 37, 2-[4-(2-Hydroxyethyl)-1-piperazinyl]-4-(4-fluorophenyl)-5,6,7,8,9,10-hexahydrocycloocta[b]pyridine]
inhibition in vivo at 0.3 mg/kg ([2]; dose 0.3 mg/kg): 80%
response vs control in vivo at 3 mg/kg [1, 3]: 95%
response vs control in vivo at 3 mg/kg [1, 4]: 268%
response vs control in vivo at 3 mg/kg [1, 5]: 203%
response vs control in vivo at 3 mg/kg [1, 6]: 143%

Fc1ccc(-c2cc(N3CCN(C4CCCCC4)CC3)nc3c2CCCCCC3)cc1 [Example 39]
response vs control in vivo at 10 mg/kg [1, 3]: 97%
response vs control in vivo at 10 mg/kg [1, 4]: 307%
response vs control in vivo at 10 mg/kg [1, 5]: 233%
response vs control in vivo at 10 mg/kg [1, 6]: 117%

CCN1CCN(c2cc(-c3cccc(F)c3)c3c(n2)CCCCCC3)CC1 [Example 42]
response vs control in vivo at 10 mg/kg [1, 4]: 258%
response vs control in vivo at 10 mg/kg [1, 5]: 211%

CCN1CCN(c2cc(-c3ccccc3F)c3c(n2)CCCCCC3)CC1 [Example 43]
inhibition in vivo at 1 mg/kg [2]: 96%

CCN1CCN(c2cc(-c3ccc(Cl)cc3)c3c(n2)CCCCCC3)CC1 [Example 44]
response vs control in vivo at 10 mg/kg [1, 4]: 272%
response vs control in vivo at 10 mg/kg [1, 5]: 210%

CCN1CCN(c2cc(-c3cccc(Cl)c3)c3c(n2)CCCCCC3)CC1 [Example 46]
response vs control in vivo at 10 mg/kg [1, 4]: 296%
response vs control in vivo at 10 mg/kg [1, 5]: 235%

CCN1CCN(c2cc(-c3ccc(OC)cc3)c3c(n2)CCCCCC3)CC1 [Example 49, 2-(4-Ethyl-1-piperazinyl)-4-(4-methoxyphenyl)-5,6,7,8,9,10-hexahydrocycloocta[b]pyridine]
response vs control in vivo at 10 mg/kg [1, 4]: 197%
response vs control in vivo at 10 mg/kg [1, 5]: 195%

Cc1ccc(-c2cc(N3CCN(CCO)CC3)nc3c2CCCCCC3)cc1 [Example 52]
response vs control in vivo at 10 mg/kg [1, 4]: 233%
response vs control in vivo at 10 mg/kg [1, 5]: 216%

CCN1CCN(c2cc(-c3ccc(F)c(F)c3)c3c(n2)CCCCCC3)CC1 [Example 54]
response vs control in vivo at 2 mg/kg [1, 4]: 251%
response vs control in vivo at 2 mg/kg [1, 5]: 250%

CCN1CCN(c2cc(-c3c(F)cccc3F)c3c(n2)CCCCCC3)CC1 [Example 55]
response vs control in vivo at 2 mg/kg [1, 4]: 379%
response vs control in vivo at 2 mg/kg [1, 5]: 240%

CCN1CCN(c2cc(-c3ccc(F)cc3)c3c(n2)CCCCCCC3)CC1 [Example 56]
inhibition in vivo at 0.5 mg/kg ([2]; dose 0.5 mg/kg): 85%
response vs control in vivo at 10 mg/kg [1, 3]: 110%
response vs control in vivo at 10 mg/kg [1, 4]: 302%
response vs control in vivo at 10 mg/kg [1, 5]: 249%
response vs control in vivo at 10 mg/kg [1, 6]: 106%

CCN1CCN(c2cc(-c3ccc(F)cc3)c3c(n2)CCC(C)C3)CC1 (stereo not shown) [Example 59]
response vs control in vivo at 2 mg/kg [1, 3]: 106%
response vs control in vivo at 2 mg/kg [1, 4]: 246%
response vs control in vivo at 2 mg/kg [1, 5]: 236%
response vs control in vivo at 2 mg/kg [1, 6]: 126%

CCN1CCN(c2cc(-c3ccc(F)cc3)c3c(n2)CCC(C)(C)C3)CC1 [Example 66]
inhibition in vivo at 1 mg/kg [2]: 95%
response vs control in vivo at 2 mg/kg [1, 3]: 116%
response vs control in vivo at 2 mg/kg [1, 4]: 311%
response vs control in vivo at 2 mg/kg [1, 5]: 308%
response vs control in vivo at 2 mg/kg [1, 6]: 111%

CCN1CCN(c2cc(-c3ccc(F)cc3)c3c(n2)CC(C)(C)CC3C)CC1 (stereo not shown) [Example 68]
response vs control in vivo at 2 mg/kg [1, 4]: 206%
response vs control in vivo at 2 mg/kg [1, 5]: 181%

COCCN1CCN(c2cc(-c3ccc(F)cc3)c3c(n2)CCCCCC3)CC1 [Example 82, 2-[4-(2-Methoxyethyl)-1-piperazinyl]-4-(4-fluorophenyl)-5,6,7,8,9,10-hexahydrocycloocta[b]pyridine dimaleate]
inhibition in vivo at 1 mg/kg [2]: 100%

CC1CN(c2cc(-c3ccc(F)cc3)c3c(n2)CCCCCC3)CC(C)N1 (stereo not shown) [Example 84, 2-(3,5-Dimethyl-1-piperazinyl)-4-(4-fluorophenyl)-5,6,7,8,9,10-hexahydrocycloocta[b]pyridine 1/2 fumarate]
response vs control in vivo at 10 mg/kg [1, 4]: 237%
response vs control in vivo at 10 mg/kg [1, 5]: 216%

Fc1ccc(-c2cc(N3CCNCC3)nc3c2CCCCCC3)cc1 [Example 104, 2-(1-piperazinyl)-4-(4-fluorophenyl)-5,6,7,8,9,10-hexahydrocycloocta[b]pyridine]
response vs control in vivo at 10 mg/kg [1, 3]: 97%
response vs control in vivo at 10 mg/kg [1, 4]: 344%
response vs control in vivo at 10 mg/kg [1, 5]: 247%
response vs control in vivo at 10 mg/kg [1, 6]: 160%

CC1CN(c2cc(-c3ccc(F)cc3)c3c(n2)CCCCCC3)CCN1C (stereo not shown) [Example 116, 2-(3,4-Dimethyl-1-piperazinyl)-4-(4-fluorophenyl)-5,6,7,8,9,10-hexahydrocycloocta[b]pyridine fumarate 1/4 hydrate]
inhibition in vivo at 1 mg/kg [2]: 100%

C[C@@H]1CN(c2cc(-c3ccc(F)cc3)c3c(n2)CCCCCC3)C[C@H](C)N1C [Example 117, 2-(cis-3,5-Dimethyl-4-methyl-1-piperazinyl)-4-(4-fluorophenyl)-5,6,7,8,9,10-hexahydrocycloocta[b]pyridine fumarate]
response vs control in vivo at 10 mg/kg [1, 3]: 100%
response vs control in vivo at 10 mg/kg [1, 4]: 242%
response vs control in vivo at 10 mg/kg [1, 5]: 210%
response vs control in vivo at 10 mg/kg [1, 6]: 133%

CCCCCCN1CCN(c2cc(-c3ccc(F)cc3)c3c(n2)CCCCCC3)CC1 [Example 124]
response vs control in vivo at 10 mg/kg [1, 3]: 107%
response vs control in vivo at 10 mg/kg [1, 4]: 292%
response vs control in vivo at 10 mg/kg [1, 5]: 238%
response vs control in vivo at 10 mg/kg [1, 6]: 102%

CCN1CCN(c2cc(-c3ccc(F)cc3F)c3c(n2)CCCCC3)CC1 [Example 131, 2-(4-ethyl-1-piperazinyl)-4-(2,4-difluorophenyl)-6,7,8,9-tetrahydro-5H-cyclohepta[b]pyridine]
response vs control in vivo at 1 mg/kg [1, 4]: 319%
response vs control in vivo at 1 mg/kg [1, 5]: 224%

CCN1CCN(c2cc(-c3ccc(F)cc3F)c3c(n2)CCC3)CC1 [Example 132, 2-(4-ethyl-1-piperazinyl)-4-(2,4-difluorophenyl)-6,7-dihydro-5H-1-pyrindin]
response vs control in vivo at 10 mg/kg [1, 4]: 333%
response vs control in vivo at 10 mg/kg [1, 5]: 209%

CCN1CCN(c2cc(-c3ccc(F)cc3F)c3c(n2)C2CCC3C2)CC1 (stereo not shown) [Example 135, 2-(4-ethyl-1-piperazinyl)-4-(2,4-difluorophenyl)-5,6,7,8-tetrahydro-5,8-methanoquinoline]
inhibition in vivo at 1 mg/kg [2]: 100%

OCCCN1CCN(c2cc(-c3ccc(F)cc3)c3c(n2)CCCCCC3)CC1 [Example 138, 2-[4-(3-hydroxypropyl)-1-piperazinyl]-4-(4-fluorophenyl)-5,6,7,8,9,10-hexahydrocycloocta[b]pyridine]
response vs control in vivo at 2 mg/kg [1, 4]: 236%
response vs control in vivo at 2 mg/kg [1, 5]: 173%

CC(=O)OCCN1CCN(c2cc(-c3ccc(F)cc3)c3c(n2)CCCCCC3)CC1 [Example 139, 2-[4-(2-acetoxyethyl)-1-piperazinyl]-4-(4-fluorophenyl)-5,6,7,8,9,10-hexahydrocycloocta[b]pyridine]
response vs control in vivo at 10 mg/kg [1, 4]: 267%
response vs control in vivo at 10 mg/kg [1, 5]: 206%
